Experimental data reported in patent publication US9993529B2, “Stable formulations of a hyaluronan-degrading enzyme” (Halozyme, Inc., priority 2011, dated 2018).
Where two headings read alike, the source gives them in different places. Blank lines part the entries; values can stand above or below the molecule they belong to. Residues, ends and D or L forms follow the SMILES beside them.

How the values were obtained:
[1] = SEC, % main rHuPH20 peak; assay type: physicochemical
Description: SEC was performed using the following conditions: 1× Phosphate Buffered Saline (PBS), a Toso BioScience G2000 SWXL column, and a flow rate set at 1 mL/min. Data were collected as described above and means were reported and entered into the design table following the sample sequence provided by the DOE software.

[2] = RP-HPLC insulin apparent solubility / percent recovery (content)
Description: Apparent solubility was measured as the percent insulin recovery as compared to the initial formulations/conditions.
Samples were prepared by withdrawing 100 μL from each vial at every time point and centrifuging prior to loading. Samples were stored in an autosampler at 4° C. prior to use, and were considered stable for 3 days after preparation. All samples were tested in duplicate.
For insulin, 20 μL was injected for each HPLC run.
To determine the apparent solubility, the peak area of insulin/insulin analog main peak and desamido peak were integrated and combined together to calculate the percentage relative to the standards. […] The data were processed using Design-Expert® 7.0 (StatEase) and the “historical data” feature. Insulin percent purity was expressed as the percent of main insulin versus all insulin species.

[3] = biological target: T1, rHuPH20 (Homo sapiens, UniProt P38567); conditions: for Effect on rHuPH20 enzymatic activity: stabilizer screen in rHuPH20/insulin formulation ([…] m-cresol, 0.2% phenol, pH 7.3±0.1), 30° C. about one week, semi-quantitative in comparison with NaCl; for rHuPH20 activity: 48 hours
T1 sequence (P38567 36-482): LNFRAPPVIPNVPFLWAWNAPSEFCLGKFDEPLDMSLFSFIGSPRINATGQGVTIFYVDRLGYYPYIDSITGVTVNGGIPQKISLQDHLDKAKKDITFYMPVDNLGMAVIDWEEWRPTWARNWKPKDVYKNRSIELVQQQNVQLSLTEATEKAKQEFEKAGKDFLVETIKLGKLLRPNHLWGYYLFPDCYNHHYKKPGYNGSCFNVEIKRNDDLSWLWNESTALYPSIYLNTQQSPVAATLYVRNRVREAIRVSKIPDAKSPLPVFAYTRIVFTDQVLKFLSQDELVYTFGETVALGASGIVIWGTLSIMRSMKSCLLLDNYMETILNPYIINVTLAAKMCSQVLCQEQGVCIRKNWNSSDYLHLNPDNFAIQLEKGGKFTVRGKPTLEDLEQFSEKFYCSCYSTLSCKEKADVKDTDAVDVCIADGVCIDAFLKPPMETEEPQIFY
Description: The activity of a hyaluronan degrading enzyme can be assessed using methods well known in the art. […] A Hyaluronidase Reference Standard (USP) or National Formulary (NF) Standard Hyaluronidase solution can be used in an assay to ascertain the activity, in units, of any hyaluronidase. In one example, activity is measured using a microturbidity assay. […] The turbidity of the resulting sample is measured at 640 nm after an additional development period.

[4] = Temperature effect on pH and NaOH titration of lysyl lysine buffer; assay type: physicochemical; conditions: Ex27 rHuPH20/insulin glulisine formulations
[5] = RP-HPLC rHuPH20 oxidation peaks (ox-1, ox-2); assay type: physicochemical; conditions: 0.02% surfactant, 30° C., 72 hours
Description: The stability of hyaluronan degrading enzymes in a composition, such as in the co-formulations provided herein, also can be assessed using other methods and assays known in the art. […] Percent recovery is the relative percentage of the hyaluronidase in the co-formulation over time and at various storage conditions, as compared to a reference sample. […] An increase in particle size and a decrease in the melting temperature indicates denaturation and subsequent aggregation of the hyaluronidase. […] Other methods known to one of skill in the art that can be used to determine the stability of the hyaluronidase in the co-formulations provided herein, include polyacrylamide gel electrophoresis (PAGE), immunoblotting, nuclear magnetic resonance (NMR) spectroscopy, mass spectrometry, circular dichroism (CD) and dye-based fluorescence assays.
The formulations varied in the surfactant and surfactant concentration and the buffer (either histidine or phosphate).
Methionine oxidation can be prevented by addition of free methionine as a scavenger to react with potential oxidative compounds.

[6] = in vivo; cited from earlier work
[7] = 35° C., 1 day, concentrations of Table 21
[8] = stabilizer screen in rHuPH20/insulin formulation, RP-HPLC on samples stored at 5° C., semi-quantitative in comparison with NaCl
[9] = 4° C., concentrations of Table 22

- % Main rHuPH20 peak by non-denaturing SEC [1, 7]: <LOD
Molecule: OCCCCCl [4-Chloro-1-butanol]

- Effect on insulin solubility [2, 8]: No effect
- Effect on rHuPH20 enzymatic activity [3]: No effect
Molecule: C[N+](C)(C)CC(=O)O [Betaine]

Molecule: NC(=O)CC[C@H](N)C(=O)O [Glutamine]
- Effect on insulin solubility [2, 8]: No effect
- Effect on rHuPH20 enzymatic activity [3]: No effect

- Effect on rHuPH20 enzymatic activity [3]: No effect
Molecule: NCC(=O)NCC(=O)O [Gly-Gly] (H-Gly-Gly-OH)

- Effect on rHuPH20 enzymatic activity [3]: No effect
Molecule: O[C@H]1[C@H](O)[C@@H](O)[C@H](O)[C@@H](O)[C@H]1O [Inositol]

- % Main rHuPH20 peak by non-denaturing SEC [1, 9]: 100.00%
Molecule: N[C@@H](Cc1ccccc1)C(=O)O [L-Phenylalanine]

Molecule: Cl.Cl.NCCCCC(N)C(=O)NC(CCCCN)C(=O)O (stereo not drawn) [Lys-Lys, H-Lys-Lys-OH HCl]
- Effect on insulin solubility [2, 8]: Reduced solubility
- Effect on insulin solubility ([2]; stabilizer screen, 5° C.): caused severe precipitation of insulin
- temperature effect (dpH/dT) [4]: −0.033 U/° C.
- Lys-Lys concentration sufficient to improve rHuPH20 stability ([3]; Ex24, 40° C.): 10 mM
- Effect on rHuPH20 enzymatic activity [3]: Strong stabilizer
- stabilization of rHuPH20 compared with NaCl ([3]; stabilizer screen, […] m-cresol, 0.2% phenol, 30° C., about one week): stabilized rHuPH20 more than NaCl

Molecule: NCCCC[C@H](N)C(=O)O [Lysine]
- Effect on insulin solubility [2, 8]: No effect
- Effect on rHuPH20 enzymatic activity [3]: No effect

- Effect on rHuPH20 enzymatic activity [3]: No effect
Molecule: OC[C@@H](O)[C@@H](O)[C@H](O)[C@H](O)CO [Mannitol]

Molecule: O=C(O)CCCc1ccccc1 [Phenyl butyric acid]
- Effect on rHuPH20 enzymatic activity [3]: No effect

Molecule: O=C([O-])c1ccccc1.[Na+] [Sodium Benzoate]
- Effect on rHuPH20 enzymatic activity [3]: No effect

- Effect on rHuPH20 enzymatic activity [3]: No effect
Molecule: OC[C@H]1O[C@@](CO)(O[C@H]2O[C@H](CO)[C@@H](O)[C@H](O)[C@H]2O)[C@@H](O)[C@@H]1O [Sucrose]

- Effect on rHuPH20 enzymatic activity [3]: No effect
Molecule: OC[C@H]1O[C@H](O[C@H]2O[C@H](CO)[C@@H](O)[C@H](O)[C@H]2O)[C@H](O)[C@@H](O)[C@@H]1O [Trehalose]

Molecule: C[N+](C)(C)[O-] [Trimethylamine oxide (TMAO)]
- Effect on insulin solubility [2, 8]: No effect
- Effect on rHuPH20 enzymatic activity [3]: No effect

- Effect on insulin solubility [2]: No effect
- Effect on rHuPH20 enzymatic activity [3]: No effect
Molecule: NC(CO)(CO)CO [Tris (100 mM)]

- Effect on insulin solubility [2]: No/slight effect;
- Effect on rHuPH20 enzymatic activity [3]: No effect
Molecule: OCC(O)CO [glycerol]

Molecule: Cc1cccc(O)c1 [m-cresol]
- rHuPH20 activity ([3]; 35° C.): <LOQ
- % Main rHuPH20 peak by non-denaturing SEC [1, 9]: 100.00%

- Effect on insulin solubility [2, 8]: No effect
- Effect on rHuPH20 enzymatic activity [3]: No effect
Molecule: CSCC[C@H](N)C(=O)O [methionine]

Molecule: COC(=O)c1ccc(O)cc1 [methylparaben]
- rHuPH20 activity ([3]; 4° C.): 10,380
- rHuPH20 activity ([3]; 35° C.): 12,660
- Enzymatic Activity of rHuPH20 ([3]; preservative 0.05 %, 1 Month, 25° C., insulin/rHuPH20): 2061 U/mL
- Enzymatic Activity of rHuPH20 ([3]; preservative 0.05 %, 1 Week, 35° C.): 1058^2 U/mL
- Enzymatic Activity of rHuPH20 ([3]; preservative 0.05 %, 2 Weeks, 35° C.): 1018^2 U/mL
- Enzymatic Activity of rHuPH20 ([3]; preservative 0.1 %, 1 Month, 25° C.): 1919 U/mL
- Enzymatic Activity of rHuPH20 ([3]; preservative 0.1 %, 1 Week, 35° C.): 2085 U/mL
- Enzymatic Activity of rHuPH20 ([3]; preservative 0.1 %, 2 Weeks, 35° C.): 1968 U/mL
- Enzymatic Activity of rHuPH20 ([3]; preservative 0.2 %, 1 Month, 25° C.): 2196 U/mL
- Enzymatic Activity of rHuPH20 ([3]; preservative 0.2 %, 1 Week, 35° C.): 1927 U/mL
- Enzymatic Activity of rHuPH20 ([3]; preservative 0.2 %, 2 Weeks, 35° C.): 1590 U/mL
- Enzymatic Activity of rHuPH20 ([3]; preservative 0.3 %, 1 Month, 25° C.): 2049 U/mL
- Enzymatic Activity of rHuPH20 ([3]; preservative 0.3 %, 2 Weeks, 35° C.): 447 U/mL
- % Main rHuPH20 peak by non-denaturing SEC [1, 9]: 100.00%

- Effect on rHuPH20 enzymatic activity [3]: No effect
Molecule: OC[C@@H](O)[C@@H](O)[C@H](O)[C@@H](O)CO [sorbitol]

- % Main rHuPH20 peak by non-denaturing SEC [1, 7]: <LOD
Molecule: Benzalkonium Chloride

Molecule: Polysorbate 20
- % of Oxidation Peak 1 of rHuPH20 ([5]; Methionine 0 mM): 4.01%
- % of Oxidation Peak 1 of rHuPH20 ([5]; Methionine 2 mM): 3.43%
- % of Oxidation Peak 1 of rHuPH20 ([5]; Methionine 10 mM): 3.37%
- % of Oxidation Peak 1 of rHuPH20 ([5]; Methionine 50 mM): 3.38%

- % of Oxidation Peak 1 of rHuPH20 ([5]; Methionine 0 mM): 4.01%
- % of Oxidation Peak 1 of rHuPH20 ([5]; Methionine 2 mM): 3.50%
- % of Oxidation Peak 1 of rHuPH20 ([5]; Methionine 10 mM): 3.44%
- % of Oxidation Peak 1 of rHuPH20 ([5]; Methionine 50 mM): 3.34%
Molecule: Polysorbate 80

Molecule: detemir: long-lasting insulin analog
- Duration [6]: 28 h

Molecule: glargine: long-lasting insulin analog
- Duration [6]: 28 h
